{"source": "patent US20260297081A1", "about": "“COMPOUNDS AND METHODS OF TREATING CANCERS” (Cullgen Inc., priority 2023, published 2026)", "assay_type_in_all_cases": "cell-based", "key": {"T47D cells [1]": {"tested_on": "T47D cells", "assay": "Downstream inhibition in T47D cells with CPD-10 and negative control CPD-143 (FIG. 2A)", "conditions": "48 hours, dose range", "procedure": "(§1) T47D cells were treated with a dose range of heterobifunctional compound CPD-10, and its negative control compound CPD-143 for 48 hours (FIG. 2A).\n(§2) Cultured cells were washed with cold PBS once and lysed in cold RIPA buffer supplemented with protease inhibitors and phosphatase inhibitors (Beyotime Biotechnology). The solutions were then incubated at 4 ? for 30 min with gentle agitation to fully lysed cells. Cell lysates were centrifuged at 13,000 rpm for 10 min at 4 ? and pellets were discarded. Total protein concentrations in the lysates were determined following BCA assays (Beyotime Biotechnology). Cell lysates were mixed with Laemmli loading buffer and heated at 99° C. for 5 min. Proteins were resolved on SDS-PAGE and visualized using Western ECL Substrate kits on a ChemiDoc MP Imaging system (Bio-Rad). Protein bands were quantitated using the Image Lab software provided by Bio-Rad."}, "MCF7 cells [2]": {"tested_on": "MCF7 cells", "assay": "Anti-proliferation (viability) of MCF7 cells (Table 7, FIG. 2B)"}, "MCF7 cells [3]": {"tested_on": "MCF7 cells", "assay": "Cell viability / anti-proliferation assay, MCF7 (Table 7, FIG. 2B)", "conditions": "10-point serial dilution, 3-6 days", "procedure": "(§3) NSCLC Calu-1 or ER+ breast cancer T47D cells were treated with selected heterobifunctional compounds following a 10-point serial dilution for 3 or 6 days, respectively.\n(§4) Cells were treated with heterobifunctional compounds following a 10-point serial dilution for 3-6 days. In Calu-1 cells, A: anti-proliferation activity IC50≤10 nM; B: anti-proliferation activity IC50<50 nM, and ≥10 nM; C: anti-proliferation activity IC50≥50 nM. In T47D cells, A: anti-proliferation activity IC50≤50 nM; B: anti-proliferation activity IC50≤100 nM, and ≥50 nM; C: anti-proliferation activity IC50≥100 nM; -, data not available.\n(§5) Calu-1, MCF7 or T47D cells were seeded in 96-well plates and treated with CPD-10, or CPD-143 following a 10-point serial dilution for 3-6 days (FIG. 2B).\n(§6) Calu-1, T47D, MCF7, HCC1428 and other cells were cultured at 37° C. with 5% CO2 in RPMI 1640 or DMEM medium supplemented with 10% fetal bovine serum. […]\n(§7) Cells were seeded at a density of 2,000-5,000 cells per well in 96-well assay plates and treated with test compounds following a 10-point serial dilution for 3-6 days. Cell viability was determined using the CellTiter-Lumi assay kit according to the manufacturer's instructions. The dose-response curves were determined and IC50 values were calculated using the GraphPad Prism software following a nonlinear regression (least squares fit) method. […]"}, "Calu-1 cells [4]": {"tested_on": "Calu-1 cells", "assay": "Anti-proliferation (viability) of NSCLC Calu-1 cells, 3 days (Table 7, FIG. 2B)", "summary_of_the_method": "(§8)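 Cells were exposed to heterobifunctional compounds across a 10-point serial dilution, for 3 days with Calu-1 and 6 days with T47D. A negative control was included that keeps the DDB1 ligand and linker but carries a modified warhead that impairs CDK4 binding.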"}, "CDK4": {"target": "CDK4 (Homo sapiens, UniProt P11802+Q16531)", "sequence (P11802 2-303 limits assumed)": "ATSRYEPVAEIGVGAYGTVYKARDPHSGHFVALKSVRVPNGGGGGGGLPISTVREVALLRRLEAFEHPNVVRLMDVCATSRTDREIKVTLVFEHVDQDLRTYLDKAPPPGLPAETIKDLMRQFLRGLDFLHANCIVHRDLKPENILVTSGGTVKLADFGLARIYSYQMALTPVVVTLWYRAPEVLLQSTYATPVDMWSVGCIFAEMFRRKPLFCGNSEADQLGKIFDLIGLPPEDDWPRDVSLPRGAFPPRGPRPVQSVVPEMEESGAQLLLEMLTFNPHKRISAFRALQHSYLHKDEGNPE", "sequence (P24385 whole entry partner)": "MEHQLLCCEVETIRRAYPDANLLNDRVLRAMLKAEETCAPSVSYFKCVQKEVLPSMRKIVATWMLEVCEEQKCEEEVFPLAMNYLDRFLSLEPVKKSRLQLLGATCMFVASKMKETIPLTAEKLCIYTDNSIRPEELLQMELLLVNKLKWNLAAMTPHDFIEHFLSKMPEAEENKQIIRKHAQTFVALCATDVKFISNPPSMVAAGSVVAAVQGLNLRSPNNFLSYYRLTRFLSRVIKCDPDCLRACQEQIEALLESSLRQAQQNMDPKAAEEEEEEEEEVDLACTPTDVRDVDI", "sequence (Q16531 2-1140 limits assumed)": "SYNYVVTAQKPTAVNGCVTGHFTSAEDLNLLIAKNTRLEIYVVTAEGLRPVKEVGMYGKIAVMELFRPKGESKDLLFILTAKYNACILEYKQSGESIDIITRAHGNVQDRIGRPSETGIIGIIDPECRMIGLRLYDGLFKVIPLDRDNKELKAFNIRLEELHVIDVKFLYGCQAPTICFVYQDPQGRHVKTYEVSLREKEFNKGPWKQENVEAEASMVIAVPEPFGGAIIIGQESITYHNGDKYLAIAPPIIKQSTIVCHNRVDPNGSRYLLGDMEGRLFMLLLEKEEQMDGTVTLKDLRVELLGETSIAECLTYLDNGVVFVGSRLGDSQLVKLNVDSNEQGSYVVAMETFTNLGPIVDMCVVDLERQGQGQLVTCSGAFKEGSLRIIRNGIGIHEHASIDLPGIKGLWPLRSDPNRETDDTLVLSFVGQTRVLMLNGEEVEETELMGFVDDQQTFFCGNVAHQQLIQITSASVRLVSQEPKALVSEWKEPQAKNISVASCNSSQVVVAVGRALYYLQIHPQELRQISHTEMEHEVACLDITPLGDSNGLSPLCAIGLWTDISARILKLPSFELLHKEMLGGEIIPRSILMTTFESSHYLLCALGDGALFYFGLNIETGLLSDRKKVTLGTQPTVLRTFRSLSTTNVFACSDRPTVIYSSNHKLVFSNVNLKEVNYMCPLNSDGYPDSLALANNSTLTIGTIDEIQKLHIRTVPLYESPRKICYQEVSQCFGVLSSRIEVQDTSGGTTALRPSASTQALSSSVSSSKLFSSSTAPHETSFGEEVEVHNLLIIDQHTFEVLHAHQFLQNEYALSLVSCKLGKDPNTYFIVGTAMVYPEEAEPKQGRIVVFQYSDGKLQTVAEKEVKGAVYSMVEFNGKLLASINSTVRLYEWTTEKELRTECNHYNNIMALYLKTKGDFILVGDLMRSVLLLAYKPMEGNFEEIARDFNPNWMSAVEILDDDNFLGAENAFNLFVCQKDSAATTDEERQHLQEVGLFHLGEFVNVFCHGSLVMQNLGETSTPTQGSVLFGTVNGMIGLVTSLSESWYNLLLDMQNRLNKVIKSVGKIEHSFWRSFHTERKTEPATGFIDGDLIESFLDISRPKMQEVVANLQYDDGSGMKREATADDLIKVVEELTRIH", "assay": "CDK4 percentage degradation in Calu-1 cells (Table 6)", "set-up": "Cells that express cyclin D1-3 and CDK4/6 proteins were treated with heterobifunctional compounds; endogenous in cells; host or cells: Calu-1", "conditions": "16 hours", "summary_of_the_method": "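Calu-1 cells exposed to heterobifunctional compounds at 40 nM or 200 nM for 16 h. Cyclin D1 and CDK4 levels measured by Western blot of RIPA lysates (BCA-normalised loading), bands quantified by densitometry and expressed as percentage degradation.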"}, "CCND": {"tested_on": "CCND", "assay": "CCND degradation in T47D cells with CPD-10 and negative control CPD-143 (FIG. 2A)", "conditions": "48 hours, dose range", "procedure": "as §1, §2"}, "[5]": {"tested_on": "CCND1, CCND3, CDK4 in T47D cells", "assay": "Immunoblot of CCND1, CCND3, CDK4 protein degradation in T47D cells (FIG. 2A, 48 hours)", "conditions": "negative control vs CPD-10", "procedure": "Specific exemplary heterobifunctional compounds were characterized in Calu-1, MCF7, T47D and other cells. Cells that express cyclin D1-3 and CDK4/6 proteins were treated with heterobifunctional compounds disclosed herein at indicated concentrations. MCF7 cells were deprived of serum for 2 hours followed by the treatment with heterobifunctional compounds. Cells were collected, lysed and subject to immunoblotting using an antibody specific to CCND1, CCND2, CCND3, CDK4, or FoxM1, cyclin A2, or phosphorylated Rb (S807/811) proteins. Tubulin or GAPDH was used as the loading control. DMSO treatment was used as the negative control.\nTo verify that heterobifunctional compound-mediated degradation is dependent on the binding to CDK4-cyclin D complex, a negative control compound, CPD-143, which is derived from active heterobifunctional compound CPD-10 was designed. CPD-143 bears the same DDB1 ligand and linker as CPD-10 but with a modified warhead to impair the binding of the control compound to CDK4."}, "T47D cells [6]": {"tested_on": "T47D cells", "assay": "Anti-proliferation (viability) of ER+ breast cancer T47D cells, 6 days (Table 7, FIG. 2B)", "summary_of_the_method": "as §8"}, "HCC1428 cells [7]": {"tested_on": "HCC1428 cells", "assay": "Flow cytometric analysis of Annexin V/7-AAD stained HCC1428 cells (apoptosis), 6 days (FIG. 3B)", "conditions": "HCC1428; 400 nM; 6 days", "procedure": "(§9) T47D cells were treated with DMSO, palbociclib, heterobifunctional compound CPD-10 for 6 days at doses approximating IC50and IC90 concentrations as indicated (FIG. 3A). HCC1428 cells were treated with DMSO, palbociclib, heterobifunctional compound CPD-10, or its negative control compound CPD-143 for 6 days at doses approximating IC90 concentrations as indicated (FIG. 3B). Cells were harvested by trypsinization, staining was carried out using the Annexin V Apoptosis Detection Kit. The percentages of early apoptotic (Annexin V^+7-AAD^−, lower right quadrant), late apoptotic (Annexin V^+7-AAD^+, upper right quadrant) and necrotic cells (Annexin V^−7-AAD^+, upper left quadrant) are indicated on dot plots."}, "Calu-1 cells [8]": {"tested_on": "Calu-1 cells", "assay": "Cell viability / anti-proliferation assay, Calu-1 (Table 7, FIG. 2B)", "conditions": "10-point serial dilution, 3-6 days", "procedure": "as §3, §4, §5, §6, §7"}, "HCC1428 cells [9]": {"tested_on": "HCC1428 cells", "assay": "Annexin V apoptosis flow cytometry, HCC1428 (FIG. 3B)", "conditions": "HCC1428, dose approximating IC90, 6 days", "procedure": "as §9, with “IC50 and” for “IC50and”, “Kit.” for “Kit. The percentages of early apoptotic (Annexin V^+7-AAD^−, lower right quadrant), late apoptotic (Annexin V^+7-AAD^+, upper right quadrant) and necrotic cells (Annexin V^−7-AAD^+, upper left quadrant) are indicated on dot plots.”\nAssays were performed on the CytoFLEX Cytometer (Beckman Coulter), and data were analyzed using CytExpert software. For cell death and apoptosis analysis, cells were harvested by trypsinization, staining was carried out using the Annexin V Apoptosis Detection Kit (BD Biosciences). Briefly, cells were resuspended in 1× binding buffer and incubated with fluorochrome-conjugated Annexin V and 7-AAD for 15 min in darkness at room temperature."}, "T47D cells [10]": {"tested_on": "T47D cells", "assay": "Cell viability / anti-proliferation assay, T47D (Table 7, FIG. 2B)", "conditions": "10-point serial dilution, 3-6 days", "procedure": "as §3, §4, §5, §6, §7"}}, "note": "pIC50: −log10 of the molar value.", "data": [{"smiles": "CNc1ccc(C(=O)Nc2ccc(N(C)C)nn2)c(NCCCCCCCNC(=O)CN2CCN(c3ccc(N(C)c4ncc5c(C)c(C(C)=O)c(=O)n(C6CCCC6)c5n4)nc3)CC2)n1", "note": "[CPD-143, 2-((7-(2-(4-(6-((6-acetyl-8-cyclopentyl-5-methyl-7-oxo-7,8-dihydropyrido[2,3-d]pyrimidin-2-yl)(methyl)amino)pyridin-3-yl)piperazin-1-yl)acetamido)heptyl)amino)-N-(6-(dimethylamino)pyridazin-3-yl)-6-(methylamino)nicotinamide]", "values": [{"measurement": "downstream inhibition potency", "setting": "T47D cells [1]", "result": "much weaker degradation potencies and downstream inhibition potencies"}, {"measurement": "pIC50", "setting": "MCF7 cells [2]; Homo sapiens, MCF7, MCF7 cells, 3-6 days, 10-point serial dilution, read-out: GI IC50 in MCF-7", "result": "< 7.00"}, {"measurement": "fold decrease in cellular anti-proliferation activity compared with CPD-10", "setting": "MCF7 cells [2]; MCF7, negative control vs CPD-10, FIG. 2B", "result": "> 15 -fold"}, {"measurement": "cell viability / anti-proliferation activity", "setting": "MCF7 cells [3]", "result": "much weaker cellular anti-proliferation activities"}, {"measurement": "fold decrease in cellular anti-proliferation activity compared with CPD-10", "setting": "Calu-1 cells [4]; Calu-1, negative control vs CPD-10, FIG. 2B", "result": "> 50 -fold"}, {"measurement": "pIC50", "setting": "Calu-1 cells [4]; Homo sapiens, 72 h, Calu-1 cells, 3 days, 10-point serial dilution, read-out: GI IC50 in Calu-1", "result": "≤ 7.30"}, {"measurement": "inhibition at 0.04 µM", "setting": "CDK4; 40 nM", "result": "< 30", "unit": "%"}, {"measurement": "inhibition at 0.2 µM", "setting": "CDK4; 200 nM", "result": "50 to 80", "unit": "%"}, {"measurement": "degradation potency", "setting": "CCND", "result": "much weaker degradation potencies"}, {"measurement": "fold decrease in DC50 (degradation potency) compared with CPD-10", "setting": "[5]", "result": "> 100 -fold"}, {"measurement": "pIC50", "setting": "T47D cells [6]; Homo sapiens, 144 h, T47D cells, 6 days, 10-point serial dilution, read-out: GI IC50 in T47D", "result": "≤ 7.00"}, {"measurement": "fold decrease in cellular anti-proliferation activity compared with CPD-10", "setting": "T47D cells [6]; T47D, negative control vs CPD-10, FIG. 2B", "result": "> 50 -fold"}, {"measurement": "Annexin V+ population", "setting": "HCC1428 cells [7]", "result": 11.8, "unit": "%"}, {"measurement": "cell viability / anti-proliferation activity", "setting": "Calu-1 cells [8]", "result": "much weaker cellular anti-proliferation activities"}, {"measurement": "cell apoptosis", "setting": "HCC1428 cells [9]", "result": "much less effect on cell apoptosis"}, {"measurement": "cell viability / anti-proliferation activity", "setting": "T47D cells [10]", "result": "much weaker cellular anti-proliferation activities"}]}]}
